Laboratory results: ChEMBL document CHEMBL3991601, “The target landscape of clinical kinase drugs” (Science, 2017)
The source made the active and inactive calls.

Legend:
[1] = target: T1, Peroxisomal acyl-coenzyme A oxidase 1 (Homo sapiens, UniProt Q15067)
T1 sequence (Q15067 whole entry): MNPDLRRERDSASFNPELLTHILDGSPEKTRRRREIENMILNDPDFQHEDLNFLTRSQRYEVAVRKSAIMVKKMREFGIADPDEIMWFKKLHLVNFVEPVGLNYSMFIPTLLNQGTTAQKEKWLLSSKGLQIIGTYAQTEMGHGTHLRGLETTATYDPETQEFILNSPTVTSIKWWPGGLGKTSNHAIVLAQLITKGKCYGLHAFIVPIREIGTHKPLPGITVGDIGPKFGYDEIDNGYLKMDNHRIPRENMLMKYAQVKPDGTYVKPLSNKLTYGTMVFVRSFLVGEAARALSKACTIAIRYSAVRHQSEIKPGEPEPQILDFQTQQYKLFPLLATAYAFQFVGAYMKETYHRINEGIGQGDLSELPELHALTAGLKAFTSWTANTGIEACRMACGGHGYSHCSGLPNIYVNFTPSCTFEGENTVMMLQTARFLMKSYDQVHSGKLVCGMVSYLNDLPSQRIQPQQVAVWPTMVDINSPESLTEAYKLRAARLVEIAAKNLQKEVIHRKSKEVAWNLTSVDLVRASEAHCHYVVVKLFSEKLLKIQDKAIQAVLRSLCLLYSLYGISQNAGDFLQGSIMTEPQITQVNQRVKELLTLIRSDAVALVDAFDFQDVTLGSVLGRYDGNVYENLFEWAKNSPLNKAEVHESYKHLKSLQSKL

[2] = target: T2, Bone morphogenetic protein receptor type-2 (Homo sapiens, UniProt Q13873)
T2 sequence (Q13873 whole entry): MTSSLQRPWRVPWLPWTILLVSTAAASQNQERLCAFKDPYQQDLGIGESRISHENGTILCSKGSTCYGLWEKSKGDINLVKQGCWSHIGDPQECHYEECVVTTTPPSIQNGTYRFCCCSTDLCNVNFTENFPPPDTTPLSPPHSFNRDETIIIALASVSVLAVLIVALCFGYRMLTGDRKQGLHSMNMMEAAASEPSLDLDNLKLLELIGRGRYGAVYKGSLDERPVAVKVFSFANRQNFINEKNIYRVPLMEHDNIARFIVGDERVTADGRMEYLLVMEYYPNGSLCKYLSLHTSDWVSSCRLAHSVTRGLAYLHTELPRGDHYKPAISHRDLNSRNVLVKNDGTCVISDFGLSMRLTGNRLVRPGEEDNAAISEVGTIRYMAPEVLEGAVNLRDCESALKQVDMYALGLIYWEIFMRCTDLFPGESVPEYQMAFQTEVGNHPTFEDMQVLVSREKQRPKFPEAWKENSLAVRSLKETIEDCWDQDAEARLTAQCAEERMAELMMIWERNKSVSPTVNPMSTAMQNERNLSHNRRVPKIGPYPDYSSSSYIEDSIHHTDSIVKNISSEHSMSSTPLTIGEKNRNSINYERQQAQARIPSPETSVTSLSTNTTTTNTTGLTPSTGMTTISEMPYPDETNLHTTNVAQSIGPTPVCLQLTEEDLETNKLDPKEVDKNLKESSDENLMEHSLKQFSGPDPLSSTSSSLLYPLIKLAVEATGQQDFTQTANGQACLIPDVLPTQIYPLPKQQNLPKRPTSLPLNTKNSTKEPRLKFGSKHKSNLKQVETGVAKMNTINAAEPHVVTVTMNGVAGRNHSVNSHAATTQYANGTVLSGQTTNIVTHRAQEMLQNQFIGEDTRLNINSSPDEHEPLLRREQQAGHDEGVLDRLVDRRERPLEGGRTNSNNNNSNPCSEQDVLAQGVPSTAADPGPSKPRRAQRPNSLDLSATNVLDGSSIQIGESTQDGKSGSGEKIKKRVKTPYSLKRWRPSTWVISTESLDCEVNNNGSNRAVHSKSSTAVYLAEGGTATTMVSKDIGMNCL

[3] = target: Serine/threonine-protein kinase B-raf (Homo sapiens, UniProt P15056)
[4] = target: T3, dCTP pyrophosphatase 1 (Homo sapiens, UniProt Q9H773)
T3 sequence (Q9H773 whole entry): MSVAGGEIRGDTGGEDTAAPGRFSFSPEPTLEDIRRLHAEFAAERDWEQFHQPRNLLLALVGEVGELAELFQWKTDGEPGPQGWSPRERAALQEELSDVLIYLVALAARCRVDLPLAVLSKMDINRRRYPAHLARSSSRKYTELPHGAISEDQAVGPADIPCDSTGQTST

[5] = target: Insulin-like growth factor 1 receptor (Homo sapiens, UniProt P08069)
[6] = target: Interleukin-1 receptor-associated kinase 1 (Homo sapiens, UniProt P51617)
[7] = target: Tyrosine-protein kinase Lyn (Homo sapiens, UniProt P07948)
[8] = target: T4, Dual specificity mitogen-activated protein kinase kinase 6 (Homo sapiens, UniProt P52564)
T4 sequence (P52564 whole entry): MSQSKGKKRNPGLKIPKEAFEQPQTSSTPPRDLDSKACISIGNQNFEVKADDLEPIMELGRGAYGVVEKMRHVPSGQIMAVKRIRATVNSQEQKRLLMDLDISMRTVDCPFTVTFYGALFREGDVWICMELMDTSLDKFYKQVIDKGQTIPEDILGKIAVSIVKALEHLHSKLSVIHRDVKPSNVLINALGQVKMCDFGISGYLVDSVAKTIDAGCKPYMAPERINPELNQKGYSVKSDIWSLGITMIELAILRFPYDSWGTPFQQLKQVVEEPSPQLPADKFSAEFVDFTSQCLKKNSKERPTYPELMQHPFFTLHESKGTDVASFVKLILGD

[9] = target: Mitogen-activated protein kinase 7 (Homo sapiens, UniProt Q13164)
[10] = target: T5, Ras-related protein Rab-27A (Homo sapiens, UniProt P51159)
T5 sequence (P51159 whole entry): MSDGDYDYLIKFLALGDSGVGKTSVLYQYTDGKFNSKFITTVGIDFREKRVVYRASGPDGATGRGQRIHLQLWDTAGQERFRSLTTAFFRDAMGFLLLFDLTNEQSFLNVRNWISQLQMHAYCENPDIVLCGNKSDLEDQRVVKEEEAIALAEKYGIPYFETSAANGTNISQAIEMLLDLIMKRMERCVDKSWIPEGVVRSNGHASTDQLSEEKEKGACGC

[11] = target: Tyrosine-protein kinase SYK (Homo sapiens, UniProt P43405)

Measured: Kd
Further: in the data inactive means no Kd found up to 30 µM.

Chain of Mitogen-activated protein kinase 7 (Q13164 whole entry): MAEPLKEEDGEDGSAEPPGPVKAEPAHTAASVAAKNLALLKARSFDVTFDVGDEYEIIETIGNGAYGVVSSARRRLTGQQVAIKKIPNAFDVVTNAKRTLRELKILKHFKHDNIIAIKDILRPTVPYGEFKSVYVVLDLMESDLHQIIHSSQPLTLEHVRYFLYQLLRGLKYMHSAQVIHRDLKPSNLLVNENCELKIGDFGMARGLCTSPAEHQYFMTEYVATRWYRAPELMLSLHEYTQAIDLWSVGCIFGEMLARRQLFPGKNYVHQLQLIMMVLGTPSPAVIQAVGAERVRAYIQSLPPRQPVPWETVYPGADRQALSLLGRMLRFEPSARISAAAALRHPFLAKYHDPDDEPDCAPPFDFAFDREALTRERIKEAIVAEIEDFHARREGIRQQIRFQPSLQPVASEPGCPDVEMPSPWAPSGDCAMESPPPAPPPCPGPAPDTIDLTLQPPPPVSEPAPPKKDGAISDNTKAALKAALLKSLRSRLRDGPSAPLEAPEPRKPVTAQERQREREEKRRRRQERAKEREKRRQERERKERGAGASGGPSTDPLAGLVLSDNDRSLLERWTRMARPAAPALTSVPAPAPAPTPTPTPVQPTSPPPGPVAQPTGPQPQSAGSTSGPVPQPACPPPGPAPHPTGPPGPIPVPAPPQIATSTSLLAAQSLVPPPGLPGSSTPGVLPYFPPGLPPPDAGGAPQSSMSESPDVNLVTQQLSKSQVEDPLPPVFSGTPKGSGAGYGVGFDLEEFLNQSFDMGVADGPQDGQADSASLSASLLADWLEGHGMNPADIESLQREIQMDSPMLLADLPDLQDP
Chain of Tyrosine-protein kinase Lyn (P07948 whole entry): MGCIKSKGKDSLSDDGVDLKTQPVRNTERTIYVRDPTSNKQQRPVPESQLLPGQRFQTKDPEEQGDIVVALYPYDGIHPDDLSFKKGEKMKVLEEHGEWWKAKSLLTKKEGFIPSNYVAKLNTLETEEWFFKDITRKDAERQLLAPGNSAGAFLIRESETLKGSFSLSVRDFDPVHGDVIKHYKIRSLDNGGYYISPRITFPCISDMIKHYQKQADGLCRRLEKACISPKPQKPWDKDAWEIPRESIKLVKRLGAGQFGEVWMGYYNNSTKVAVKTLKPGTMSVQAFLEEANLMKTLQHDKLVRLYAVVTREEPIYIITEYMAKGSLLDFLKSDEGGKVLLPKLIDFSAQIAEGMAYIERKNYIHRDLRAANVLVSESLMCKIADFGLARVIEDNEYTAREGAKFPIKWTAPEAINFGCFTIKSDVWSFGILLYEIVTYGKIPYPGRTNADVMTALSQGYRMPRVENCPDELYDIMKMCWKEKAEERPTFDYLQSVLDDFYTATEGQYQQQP
Chain of Serine/threonine-protein kinase B-raf (P15056 whole entry): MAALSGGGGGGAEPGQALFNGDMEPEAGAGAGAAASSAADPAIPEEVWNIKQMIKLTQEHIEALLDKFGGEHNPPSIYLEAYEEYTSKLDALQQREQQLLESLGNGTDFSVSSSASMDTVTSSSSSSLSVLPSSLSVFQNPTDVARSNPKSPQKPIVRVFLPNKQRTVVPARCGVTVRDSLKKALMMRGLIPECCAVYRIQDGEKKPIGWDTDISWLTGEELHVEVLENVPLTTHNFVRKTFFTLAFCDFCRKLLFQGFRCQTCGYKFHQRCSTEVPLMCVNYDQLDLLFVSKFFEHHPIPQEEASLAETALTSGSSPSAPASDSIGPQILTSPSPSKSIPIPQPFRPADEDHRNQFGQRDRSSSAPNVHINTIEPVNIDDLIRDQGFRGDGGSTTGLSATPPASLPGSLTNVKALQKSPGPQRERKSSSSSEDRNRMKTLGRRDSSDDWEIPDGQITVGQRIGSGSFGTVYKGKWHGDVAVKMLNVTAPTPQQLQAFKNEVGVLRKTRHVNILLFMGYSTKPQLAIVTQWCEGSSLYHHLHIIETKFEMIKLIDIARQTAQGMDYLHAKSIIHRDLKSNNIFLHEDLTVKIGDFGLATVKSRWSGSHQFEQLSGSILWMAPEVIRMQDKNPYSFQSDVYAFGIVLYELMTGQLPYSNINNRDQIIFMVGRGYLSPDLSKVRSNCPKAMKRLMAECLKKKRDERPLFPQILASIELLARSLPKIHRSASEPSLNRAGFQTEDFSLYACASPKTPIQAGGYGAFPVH
Chain of Insulin-like growth factor 1 receptor (P08069 31-736 limits assumed): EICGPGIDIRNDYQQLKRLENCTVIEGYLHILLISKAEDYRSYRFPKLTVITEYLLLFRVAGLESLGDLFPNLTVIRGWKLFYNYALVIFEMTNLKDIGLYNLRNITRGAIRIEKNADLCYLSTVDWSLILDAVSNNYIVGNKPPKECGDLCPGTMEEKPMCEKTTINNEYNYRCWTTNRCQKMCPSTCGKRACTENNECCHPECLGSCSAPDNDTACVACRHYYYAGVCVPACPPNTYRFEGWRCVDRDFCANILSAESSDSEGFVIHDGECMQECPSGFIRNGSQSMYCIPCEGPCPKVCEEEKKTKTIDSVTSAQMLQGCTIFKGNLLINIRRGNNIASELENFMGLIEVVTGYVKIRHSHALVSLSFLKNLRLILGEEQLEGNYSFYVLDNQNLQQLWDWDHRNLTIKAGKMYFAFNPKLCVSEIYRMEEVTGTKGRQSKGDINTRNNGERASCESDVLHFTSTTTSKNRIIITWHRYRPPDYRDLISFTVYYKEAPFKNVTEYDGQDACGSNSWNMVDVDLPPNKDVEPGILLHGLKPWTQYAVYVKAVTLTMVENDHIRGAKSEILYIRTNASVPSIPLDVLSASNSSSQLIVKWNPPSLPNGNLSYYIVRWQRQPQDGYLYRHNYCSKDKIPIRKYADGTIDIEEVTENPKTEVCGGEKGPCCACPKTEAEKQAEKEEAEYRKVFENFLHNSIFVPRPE
Chain of Insulin-like growth factor 1 receptor (P08069 741-1367 limits assumed): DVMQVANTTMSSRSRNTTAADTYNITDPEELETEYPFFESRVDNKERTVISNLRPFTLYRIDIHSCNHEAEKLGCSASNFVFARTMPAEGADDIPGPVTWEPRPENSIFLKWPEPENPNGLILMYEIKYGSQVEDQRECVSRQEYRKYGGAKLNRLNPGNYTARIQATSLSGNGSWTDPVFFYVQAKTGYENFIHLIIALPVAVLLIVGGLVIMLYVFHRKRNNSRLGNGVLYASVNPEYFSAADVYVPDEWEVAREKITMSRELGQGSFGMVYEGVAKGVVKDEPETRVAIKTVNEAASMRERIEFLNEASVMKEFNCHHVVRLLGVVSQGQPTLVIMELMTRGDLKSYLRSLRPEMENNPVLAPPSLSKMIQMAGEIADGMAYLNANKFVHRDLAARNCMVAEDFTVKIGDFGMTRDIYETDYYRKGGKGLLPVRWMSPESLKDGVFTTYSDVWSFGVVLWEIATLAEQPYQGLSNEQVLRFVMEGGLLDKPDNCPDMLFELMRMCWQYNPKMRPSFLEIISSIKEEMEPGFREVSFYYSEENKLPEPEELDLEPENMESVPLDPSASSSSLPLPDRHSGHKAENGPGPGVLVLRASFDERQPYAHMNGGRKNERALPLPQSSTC
Chain of Interleukin-1 receptor-associated kinase 1 (P51617 whole entry): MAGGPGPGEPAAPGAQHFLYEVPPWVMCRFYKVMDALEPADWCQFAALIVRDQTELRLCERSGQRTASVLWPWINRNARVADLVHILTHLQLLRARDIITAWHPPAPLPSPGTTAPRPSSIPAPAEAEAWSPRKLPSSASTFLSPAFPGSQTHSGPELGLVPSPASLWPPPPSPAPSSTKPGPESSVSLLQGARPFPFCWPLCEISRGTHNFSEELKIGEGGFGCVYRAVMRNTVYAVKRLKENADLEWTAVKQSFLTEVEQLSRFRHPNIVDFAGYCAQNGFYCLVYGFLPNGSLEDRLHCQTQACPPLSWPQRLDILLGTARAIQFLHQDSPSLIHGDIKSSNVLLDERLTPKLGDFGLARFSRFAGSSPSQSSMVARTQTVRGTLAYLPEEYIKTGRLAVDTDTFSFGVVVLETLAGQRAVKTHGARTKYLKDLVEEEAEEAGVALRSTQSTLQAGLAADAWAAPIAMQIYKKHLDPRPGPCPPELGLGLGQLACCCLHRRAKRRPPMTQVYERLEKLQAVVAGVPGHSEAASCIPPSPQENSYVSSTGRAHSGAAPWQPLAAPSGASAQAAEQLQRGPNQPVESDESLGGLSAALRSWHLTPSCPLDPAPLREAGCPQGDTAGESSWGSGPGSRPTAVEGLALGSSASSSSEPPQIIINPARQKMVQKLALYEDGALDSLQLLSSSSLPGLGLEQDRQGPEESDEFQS

O=C(Cc1ccc(-c2ccc(OCCN3CCOCC3)cc2)cn1)NCc1ccccc1 [TIRBANIBULIN]
inactive: [1] > 30 µM | [2] > 30 µM | [3] > 30 µM | [4] > 30 µM | [5] > 30 µM | [6] > 30 µM | [7] > 30 µM | [8] > 30 µM | [9] > 30 µM | [10] > 30 µM | [11] > 30 µM

C[C@@H](N)c1ccc(C(=O)Nc2ccnc3[nH]ccc23)cc1 [Y-39983]
inactive: [1] > 30 µM | [2] > 30 µM | [3] > 30 µM | [4] > 30 µM | [5] > 30 µM | [6] > 30 µM | [7] > 30 µM | [8] > 30 µM | [9] > 30 µM | [10] > 30 µM | [11] > 30 µM

CN1C/C=C/CCOc2cccc(c2)-c2ccnc(n2)Nc2cccc(c2)C1 [ZOTIRACICLIB]
inactive: [1] > 30 µM | [2] > 30 µM | [3] > 30 µM | [4] > 30 µM | [5] > 30 µM | [6] > 30 µM | [7] > 30 µM | [8] > 30 µM | [9] > 30 µM | [10] > 30 µM | [11] > 30 µM
